Laboratory results as given in PubChem BioAssay AID179 (DTP/NCI, 2004).
Active and inactive are the calls of the source.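 How the source made its calls: active means compounds giving half or more protection of infected cells from virus-caused growth loss, again on retest; inactive means the rest.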

System: CEM cells HIV-1 protection, formazan growth assay
Test: NCI AIDS Antiviral Assay
Details: for IC50: measured here: growth of uninfected CEM cells
In short: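 Human CEM cells, uninfected and HIV-1-infected, received five drug concentrations, and growth was read by soluble formazan assay. Compounds giving at least 50% protection were retested; reproducible 100% protection defined confirmed active.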

| SMILES | outcome | EC50 [µM] | IC50 [µM] |
| --- | --- | --- | --- |
| CCn1cc(C(=O)O)c(=O)c2cc(F)c(N3CCNCC3)nc21 | inactive | – | – |
| N#Cc1ccccc1-c1nc2c3c(c(N)ccc3n1)C(=O)c1ccccc1-2 | – | > 200 | 40.7 |
| CCSCCCCCCCCCCCC(=O)O | – | 9.33 | 32.4 |
| COc1ccc(/C=N\N2CC(=O)N3C4C=CC(CC4)N3C2=O)cc1 (stereo not given) | – | > 200 | > 200 |
| Oc1c(C(Nc2cccc3cccnc23)c2ccccc2)ccc2cccnc12 (stereo not given) | – | > 3.8 | 0.933 |
| O=C1C(O)=C(c2ccccc2)C(=O)C(O)=C1c1ccccc1 | – | > 85.1 | 43.7 |
| C[C@@]1(O)C2CC3CC1(c1ccccc1)CC(/C3=N/O)/C2=N\O (stereo not given in full) | – | > 200 | > 200 |
| COc1ccc(/C=C2\CCCCC2=O)cc1 | inactive | – | – |
| O=C1/C(=C/c2ccc3c(c2)OCO3)CCC/C1=C\c1ccc2c(c1)OCO2 | – | > 7.59 | > 7.59 |
| CCN(CC)c1ccc(N=Nc2ccc(-c3nc4ccc[n+](C)c4s3)cc2)cc1 | – | > 7.08 | 4.79 |
| COc1ccc(-n2cnn3c(=O)c4cn[nH]c4nc23)cc1 | – | > 200 | > 200 |
| C[Si](C)(C)C(Sc1ccccc1)(Sc1ccccc1)Sc1ccccc1 | inactive | – | – |
| CONC1CC(n2cc(C)c(=O)[nH]c2=O)OC1CO (stereo not given) | – | > 200 | > 200 |
| CCCCCC(=O)Nc1nc[nH]c1C(N)=O | – | > 200 | > 200 |
| CCOC(=O)CC1COc2ccc3c(c21)OCO3 (stereo not given) | – | > 525 | 339 |
| COc1cc(/C=C/C(=O)OC[C@H](Br)[C@H](OC(C)=O)c2ccc3c(c2)OCO3)cc(OC)c1OC | – | > 200 | 47.9 |
| CCCc1cc(=O)oc2c3c(c4c(c12)OC(C)(C)CC4)O[C@H](C)[C@@H](C)[C@@H]3O | – | 0.316 | 8.13 |
| O=C(Nc1ccccc1)c1cc2ccccc2oc1=O | – | > 100 | > 100 |
| O=C(Nc1nc(=S)[nH][nH]1)C(=O)C(C(=O)c1ccc2ccccc2c1)C1OC(=O)c2ccccc21 (stereo not given) | – | > 55 | 25.7 |
| O=P(CP(=O)(c1ccccc1)c1ccccc1)(c1ccccc1)c1ccccc1.[CH3][Sn]([CH3])([Cl])[Cl] | inactive | – | – |
| COc1ccc2nc3cccc([N+](=O)[O-])c3c(NCCCO)c2c1 | – | > 2 | 0.017 |
| COc1ccc(OC)c(N=Nc2cc(OC)c(N=Nc3c(O)c4ccccc4[nH]c3=O)cc2Cc2ccccc2C(=O)O)c1 | – | > 50.1 | 31.6 |

| SMILES | outcome | EC50 [µM] | IC50 [µM] |
| --- | --- | --- | --- |
| COc1ccccc1Nc1nc(N)nc(N)c1N | – | > 200 | 36.3 |
| CC1(C)C=Cc2c(cc3oc4ccc5c(c4c(=O)c3c2O)C=CC(C)(C)O5)O1 | – | 36.3 | 50.1 |
| C=C=C(C)C(c1ccccc1)N(C)C (stereo not given) | – | > 1050 | > 1050 |
| Cc1nnc2c3nccnc3c(Cl)nn12 | – | > 200 | 2.34 |
| Cc1cc2c(s1)C(N)CC2=O (stereo not given) | – | > 200 | > 200 |
| O=C(Cc1csc2[n+]1C(=O)/C(=C/c1ccc(Cl)cc1)S2)Nc1ccccc1 | – | > 200 | 30.2 |
| CC(C)CCCC(C)[C@H]1CC[C@@H]2[C@H]3CC[C@H]4C[C@@H](CCC=C(c5cc(Cl)c(OCc6cccc([N+](=O)[O-])c6)c(C(=O)O)c5)c5cc(Cl)c(OCc6cccc([N+](=O)[O-])c6)c(C(=O)O)c5)CC[C@]4(C)[C@@H]3CC[C@]12C (stereo not given in full) | – | > 200 | > 200 |
| CN(C)c1ccc(/C=C(\C#N)c2cccc(F)c2)cc1 | – | > 2 | 0.141 |
| CC(NC(=O)C(N)CCC(=O)O)C(=O)NCP(=O)(O)O (stereo not given) | – | > 200 | > 200 |
| COc1ccc(NC(=O)C2C(=O)N(c3ccc(OC)cc3)C(=O)/C2=N\N)cc1 (stereo not given) | – | > 1.45 | > 1.45 |
| C=C(CN(CC)CC)C1(c2ccccc2)CC2(CCCC2)C(=O)O1 (stereo not given) | – | > 200 | 117 |
| CCn1c(=O)c(N=O)c(N)n(C2CC2)c1=O | – | > 200 | > 200 |
| Nc1nc(Cl)cc(OCC2CC(O)(CO)C2)n1 (stereo not given) | – | > 200 | > 200 |
| CCOP(=O)(CCCC(O)CNc1nc(N)nc(Cl)c1N=Nc1ccc(Cl)cc1)OCC (stereo not given) | – | > 200 | 5.75 |
| COc1ccc(/C=C/C(=O)/C=C/c2ccc(OC)cc2)cc1 | – | > 200 | 72.4 |
| C(=N\Nc1ccccn1)/c1ccccn1.C(=N\Nc1ccccn1)/c1ccccn1.[Cl-].[Fe+3] | – | > 200 | 117 |
| CSc1nc(C)c(CCCl)c(Cl)n1 | inactive | – | – |
| CCN(CC)c1nc(=O)c(C(=O)C(C)(C)C)c(C(C)(C)C)o1 | – | > 200 | > 200 |
| N#CC1C(=O)C(=O)N(c2ccccc2)C1=O (stereo not given) | – | > 33.9 | > 33.9 |
| CC(C)(C)c1cc(Nc2c([N+](=O)[O-])cc([N+](=O)[O-])cc2[N+](=O)[O-])cc(C(C)(C)C)c1O | – | > 16.6 | > 16.6 |
| CCC(C)[C@H](NC(=O)[C@H](Cc1ccccc1)NC(=O)N(CC)c1ccccc1)C(=O)N[C@@H](CC(C)C)C(=O)OC (stereo not given in full) | inactive | – | – |
| Cc1cc(=O)[nH]c(CO)n1 | – | > 200 | > 200 |

| SMILES | outcome | EC50 [µM] | IC50 [µM] |
| --- | --- | --- | --- |
| COc1ccc(C2C(Cl)C(=O)N2NC(=O)c2ccc(NC(C)=O)cc2)cc1 (stereo not given) | – | > 200 | > 200 |
| Cc1nc(C)c(C(=O)Nc2cccc3c2C(=O)NC3=O)cc1C(=O)Nc1cccc2c1C(=O)NC2=O | – | > 195 | > 195 |
| O=C1NC(=Nc2ccccc2Cl)SC1C(=O)Nc1ccc([N+](=O)[O-])cc1[N+](=O)[O-] (stereo not given) | – | > 115 | > 115 |
| CC(=O)CSc1c(-c2ccccc2)c(=O)n(-c2ccccc2)c(=S)n1-c1ccccc1 | – | > 200 | 79.4 |
| N#CC12C(=O)N3C(=NC(c4ccccc4)NC3c3ccccc3)C1(C#N)C(c1ccccc1)NC1=C2CCCC1 (stereo not given) | – | > 200 | > 200 |
| COc1ccc(C2OC(c3ccncc3)=NN2C)cc1OC (stereo not given) | – | > 200 | 87.1 |
| O=C(O)c1ccccc1SSC(=S)N1CCOCC1 | – | > 0.02 | 0.000759 |
| O=C1C(CN2CCCC2)CCC1CN1CCCC1 (stereo not given) | inactive | – | – |
| O=c1/c(=C/c2cccc3ccccc23)sc2nc3ccccc3n12 | – | > 30.2 | > 30.2 |
| O=C(Nc1nc2ccccc2n1Cc1ccccc1)C(=O)NC12CC3CC(CC(C3)C1)C2 | – | > 43.7 | > 43.7 |
| C[Si](C)(C)C#C[I+]c1ccccc1 | inactive | – | – |
| Cc1cc2nc(C=C(C(F)(F)F)C(F)(F)F)sc2cc1C | – | > 20 | 3.63 |
| Cc1cccc2c(NCCCN(C)C)c3c([N+](=O)[O-])ccc(C)c3nc12 | – | > 2 | 0.162 |
| CCOC(=O)C1=NN(c2ccc([N+](=O)[O-])cc2)[C@@]2(C)C[C@]3(c4ccccc4)N(c4ccc([N+](=O)[O-])cc4)N=C(C(=O)OCC)N3c3ccccc3N12 | – | > 200 | > 200 |
| O=C1C=C(C(O)CCO)C(=O)c2c(O)ccc(O)c21 (stereo not given) | inactive | – | – |
| CCCOc1csc([C@H]2CCC3[C@@H]4CC=C5C[C@@H](O)CC[C@]5(C)C4CC[C@@]32C)n1 (stereo not given in full) | – | > 12 | > 12 |
| CC(NC(=O)/C(=C/c1ccccc1)NC(=O)c1ccccc1)C(=O)O (stereo not given) | – | > 200 | > 200 |
| Cc1ccccc1NC(=O)C(=O)CC(=O)C1CCOC1=O (stereo not given) | inactive | – | – |
| O=C(Nc1ccc(Cl)cc1)Nc1ccc(Cl)c(Cl)c1 | – | > 200 | 2.95 |
| NC1(C(=O)O)CCCC1 | – | > 724 | > 724 |
| CC(Cc1ccc2c(c1)OCO2)N(C)C(=O)C1=CCN(C)CC1 (stereo not given) | – | > 200 | > 200 |
